Common to all, as to type: ADME, organism-based
The nature of data set [1]: AUC (0 to 24 hrs) in diabetic tuberculosis patient at 10 mg/kg, po and 10 mg/kg, iv by HPLC analysis. The following applies: human, plasma.
Data set [2] is described as follows: AUC (0 to 24 hrs) in tuberculosis patient at 10 mg/kg, po by HPLC analysis. Also on record: time < 24 hr, dose 10 mg/kg, route oral. The settings on record: human, plasma.
For data set [3], the species on record is Homo sapiens. As to the kind of experiment: Ratio of AUC (0 to 24 hrs) for diabetic tuberculosis patient to AUC (0 to 24 hrs) for tuberculosis patient. The following applies: in vivo.
The nature of data set [4]: Cmax in diabetic tuberculosis patient at 10 mg/kg, po and 10 mg/kg, iv by HPLC analysis. The settings on record: human, in vivo.
A short description of data set [5]: Cmax in tuberculosis patient at 10 mg/kg, po by HPLC analysis. Also on record: dose 10 mg/kg, route oral. The following applies: human, in vivo.
Data set [6] is filed under the species Homo sapiens. As to the kind of experiment: Ratio of Cmax in diabetic tuberculosis patient to Cmax in tuberculosis patient. The following applies: in vivo.
The nature of data set [7]: Tmax in diabetic tuberculosis patient at 10 mg/kg, po and 10 mg/kg, iv by HPLC analysis. The settings on record: human, in vivo.
A short description of data set [8]: Tmax in tuberculosis patient at 10 mg/kg, po by HPLC analysis. Also on record: dose 10 mg/kg, route oral. The settings on record: human, in vivo.
The nature of data set [9]: Half life in diabetic tuberculosis patient at 10 mg/kg, po and 10 mg/kg, iv by HPLC analysis. The settings on record: human, in vivo.
Data set [10] is described as follows: Half life in tuberculosis patient at 10 mg/kg, po by HPLC analysis. The arrangement: dose 10 mg/kg, route oral. The settings on record: human, in vivo.
For data set [11], the species on record is Homo sapiens. As to the kind of experiment: Ratio of half life in diabetic tuberculosis patient to half life in tuberculosis patient. The settings on record: in vivo.
Data set [12] is described as follows: AUC (0 to 24 hrs) in diabetic tuberculosis patient at 15 mg/kg, po by HPLC analysis. Also on record: time < 24 hr, dose 15 mg/kg, route oral. The settings on record: human, plasma.
The nature of data set [13]: AUC (0 to 24 hrs) in tuberculosis patient at 15 mg/kg, po by HPLC analysis. The arrangement: time < 24 hr, dose 15 mg/kg, route oral. The following applies: human, plasma.
For data set [14], the system named is Homo sapiens. As to the kind of experiment: Ratio of sAUC (0 to 24 hrs) for diabetic tuberculosis patient to sAUC (0 to 24 hrs) for tuberculosis patient at 15 mg/kg, po. Also on record: dose 15 mg/kg, route oral. The settings on record: in vivo.
Data set [15] in a line: Cmax in diabetic tuberculosis patient at 15 mg/kg, po by HPLC analysis. The settings on record: human, in vivo. Also on record: dose 15 mg/kg, route oral.
A short description of data set [16]: Cmax in tuberculosis patient at 15 mg/kg, po by HPLC analysis. The arrangement: dose 15 mg/kg, route oral. The settings on record: human, in vivo.
For data set [17], the system named is Homo sapiens. As to the kind of experiment: Ratio of Cmax in diabetic tuberculosis patient to Cmax in tuberculosis patient at 15 mg/kg, po. Also on record: dose 15 mg/kg, route oral. The settings on record: in vivo.
Data set [18] can be described thus: Tmax in diabetic tuberculosis patient at 15 mg/kg, po by HPLC analysis. Also on record: dose 15 mg/kg, route oral. The settings on record: human, in vivo.
The nature of data set [19]: Tmax in tuberculosis patient at 15 mg/kg, po by HPLC analysis. Also on record: dose 15 mg/kg, route oral. The settings on record: human, in vivo.
Data set [20] in a line: AUC (0 to 24 hrs) in diabetic tuberculosis patient at 30 mg/kg, po by HPLC analysis. The arrangement: time < 24 hr, dose 30 mg/kg, route oral. The following applies: human, plasma.
A short description of data set [21]: AUC (0 to 24 hrs) in tuberculosis patient at 30 mg/kg, po by HPLC analysis. The settings on record: human, plasma. The arrangement: time < 24 hr, dose 30 mg/kg, route oral.
In data set [22] the test system is Homo sapiens. As to the kind of experiment: Ratio of AUC (0 to 24 hrs) for diabetic tuberculosis patient to AUC (0 to 24 hrs) for tuberculosis patient at 30 mg/kg, po. The settings on record: in vivo. Also on record: dose 30 mg/kg, route oral.
Data set [23] can be described thus: Cmax in diabetic tuberculosis patient at 30 mg/kg, po by HPLC analysis. Also on record: dose 30 mg/kg, route oral. The settings on record: human, in vivo.
Data set [24] is described as follows: Cmax in tuberculosis patient at 30 mg/kg, po by HPLC analysis. The arrangement: dose 30 mg/kg, route oral. The settings on record: human, in vivo.
The subject of data set [25] is Homo sapiens. As to the kind of experiment: Ratio of Cmax in diabetic tuberculosis patient to Cmax in tuberculosis patient at 30 mg/kg, po. Also on record: dose 30 mg/kg, route oral. The following applies: in vivo.
Data set [26] in a line: Tmax in diabetic tuberculosis patient at 30 mg/kg, po by HPLC analysis. Also on record: dose 30 mg/kg, route oral. The following applies: human, in vivo.
The nature of data set [27]: Tmax in tuberculosis patient at 30 mg/kg, po by HPLC analysis. The settings on record: human, in vivo. The arrangement: dose 30 mg/kg, route oral.
A short description of data set [28]: Apparent oral clearance in tuberculosis patient at 10 mg/kg, po by HPLC analysis. The settings on record: human, in vivo. The arrangement: dose 10 mg/kg, route oral.
Data set [29] in a line: Apparent volume of distribution in tuberculosis patient at 10 mg/kg, po by HPLC analysis. Also on record: dose 10 mg/kg, route oral. The settings on record: human, in vivo, read-out: Vc/F.
Data set [30] in a line: Apparent volume of distribution in diabetic tuberculosis patient at 10 mg/kg, po and 10 mg/kg, iv by HPLC analysis. The following applies: human, in vivo, read-out: Vc/F.
Data set [31] in a line: Bioavailability in diabetic tuberculosis patient at 10 mg/kg, po and 10 mg/kg, iv by HPLC analysis. The following applies: human, in vivo.
The nature of data set [32]: Oral bioavailability in tuberculosis patient at 10 mg/kg by HPLC analysis. The following applies: human, in vivo.

This note sets out measurements from ChEMBL document CHEMBL1240386, “Pharmacokinetics of antituberculosis drugs in pulmonary tuberculosis patients with type 2 diabetes” (Antimicrob Agents Chemother, 2010).

`CO[C@H]1/C=C/O[C@@]2(C)Oc3c(C)c(O)c4c(O)c(c(/C=N/N5CCN(C)CC5)c(O)c4c3C2=O)NC(=O)/C(C)=C\C=C\[C@H](C)[C@H](O)[C@@H](C)[C@@H](O)[C@@H](C)[C@H](O)[C@@H]1C` came in with an AUC(0-t) in [1] of 5700 ng·h/mL. Further, the AUC(0-t) at 24 h in data set [2] was 8300 ng·h/mL. For the same molecule, the Ratio in the data set filed under Homo sapiens [3] was found to be 0.69; in the data set listed under Homo sapiens [6], 0.78; in the data set listed under Homo sapiens [11] it was 0.94. For the same molecule, the Cmax worked out at 1100 ng/mL in data set [4] and 1400 ng/mL in data set [5]. Besides, the Tmax came out at 3 h in data set [7] and 4 h in data set [8]. The half-life was 2.3 h in data set [9] and 2.4 h in [10].

For the molecule `CC[C@@H](CO)NCCN[C@@H](CC)CO` [ETHAMBUTOL], the AUC(0-t) at 24 h in [12] stood at 13800 ng·h/mL; in [13] it was 13500 ng·h/mL. In addition, the Ratio in the data set with Homo sapiens [14] was determined as 1.02; in the data set with Homo sapiens [17], 1.12. Also, the Cmax was found to be 2200 ng/mL in data set [15] and 1950 ng/mL in data set [16]. Moreover, the Tmax in data set [18] and in [19] was 3 h in each case.

Regarding `NC(=O)c1cnccn1` [PYRAZINAMIDE], the exposure AUC(0-t) at 24 h in [20] stood at 409000 ng·h/mL; in data set [21], 468000 ng·h/mL. In addition, the Ratio in the data set on Homo sapiens [22] is listed as 0.88; in the data set with Homo sapiens [25] it was 0.96. Moreover, the Cmax in data set [23] was 45500 ng/mL; in data set [24], 47000 ng/mL. Further, the Tmax in [26] was 1 h; in data set [27] it was 1.5 h.

In [1], `CO[C@H]1/C=C/O[C@@]2(C)Oc3c(C)c(O)c4c(O)c(c(/C=N/N5CCN(C)CC5)c(O)c4c3C2=O)NC(=O)/C(C)=C\C=C\[C@H](C)[C@H](O)[C@@H](C)[C@@H](O)[C@@H](C)[C@H](OC(C)=O)[C@@H]1C` [RIFAMPIN] came in with an area under the curve AUC(0-t) of 49000 ng·h/mL. The AUC(0-t) at 24 h in [2] came to 50600 ng·h/mL. Besides, the highest level in [5] (Cmax) was 9600 ng/mL. Also, the results for the Tmax in [7] and in data set [8] were 2 h and 2.5 h, respectively. Further, the CL/F in data set [28] was 148 mL/min. In addition, the Vd/F in data set [29] came out at 27.6 L; in [30], 27.4 L. The bioavailability stood at 69% in data set [31] and 74% in data set [32].
